Results taken from the supplement of paper PMC10307832.

Tests used:
Experiment in all cases: relative viability (nuclei count vs DMSO), 5 days (fraction); higher = more cells survive
[1] = compound: C(C(=O)C(=O)O)Br [Bromopyruvate] + Nc1nc2[nH]cc(CCc3ccc(C(=O)N[C@@H](CCC(=O)O)C(=O)O)cc3)c2c(=O)[nH]1 [Pemetrexed] (partner 0.2 µM)
In short: (§1)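 Nuclei were stained with Hoechst during a one-step fixation (final 0.05% Triton X-100, 1% formaldehyde, 1 ug/ml Hoechst) carried out 5 days after dosing, then counted on 4× images. The cells, lung cancer lines in 1536-well plates, had been dosed by pin tool the day after seeding with one drug alone or a fixed anchor-drug dose plus five library-drug doses (not always all listed) in √10 steps. Relative viability is the nuclei count in treated wells divided by that in vehicle wells, and each value is the median of duplicate plates.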

Bicalutamide + OSI-027 = compound: CC(O)(CS(=O)(=O)c1ccc(F)cc1)C(=O)Nc1ccc(C#N)c(C(F)(F)F)c1 [Bicalutamide] + COc1cccc2cc(-c3nc([C@H]4CC[C@H](C(=O)O)CC4)n4ncnc(N)c34)[nH]c12 [OSI-027] (partner 0.5 µM)
In short: as §1

[2] = compound: CC(O)(CS(=O)(=O)c1ccc(F)cc1)C(=O)Nc1ccc(C#N)c(C(F)(F)F)c1 [Bicalutamide] + Nc1ncn([C@H]2C[C@H](O)[C@@H](CO)O2)c(=O)n1 [Decitabine] (partner 2 µM)
In short: as §1

Bicalutamide + Olaparib = compound: CC(O)(CS(=O)(=O)c1ccc(F)cc1)C(=O)Nc1ccc(C#N)c(C(F)(F)F)c1 [Bicalutamide] + O=C(c1cc(Cc2n[nH]c(=O)c3ccccc23)ccc1F)N1CCN(C(=O)C2CC2)CC1 [Olaparib] (partner 8 µM)
In short: as §1

Cell Line	relative viability ([1]; first compound 1 µM)	relative viability ([1]; first compound 3.162 µM)	relative viability ([1]; first compound 10 µM)	relative viability ([1]; first compound 31.62 µM)	relative viability ([1]; first compound 100 µM)	relative viability (Bicalutamide + OSI-027; first compound 0.08 µM)	relative viability (Bicalutamide + OSI-027; first compound 0.253 µM)	relative viability (Bicalutamide + OSI-027; first compound 0.8 µM)	relative viability (Bicalutamide + OSI-027; first compound 2.53 µM)	relative viability ([2]; first compound 0.08 µM)	relative viability ([2]; first compound 0.253 µM)	relative viability ([2]; first compound 0.8 µM)	relative viability ([2]; first compound 2.53 µM)	relative viability (Bicalutamide + Olaparib; first compound 0.08 µM)	relative viability (Bicalutamide + Olaparib; first compound 0.253 µM)	relative viability (Bicalutamide + Olaparib; first compound 0.8 µM)	relative viability (Bicalutamide + Olaparib; first compound 2.53 µM)
NCI-H1734	0.391	0.398	0.395	0.466	0.408	0.66	0.473	0.614	0.488	0.542	0.453	0.515	0.558	0.623	0.546	0.685	0.606
LXF-289	0.874	0.92	0.899	0.958	0.941	0.816	0.725	0.851	0.672	0.346	0.398	0.403	0.403	1.04	1.08	1.18	1.01
H3255	0.558	0.535	0.573	0.536	0.597	0.525	0.591	–	0.498	0.601	0.571	0.668	0.525	0.564	0.558	0.554	0.551
201T	0.327	0.345	0.323	0.357	0.297	0.727	0.609	0.735	0.736	0.87	0.847	0.857	0.889	0.881	0.885	0.846	0.877
HOP-62	0.302	0.321	0.326	0.356	0.207	0.927	0.844	0.956	0.785	0.25	0.2	0.241	0.221	0.736	0.38	0.388	0.349
NCI-H596	0.546	0.522	0.55	0.48	0.59	0.854	0.659	0.845	0.763	0.975	1.02	1.09	0.983	0.604	0.767	0.799	0.844
NCI-H1755	0.44	0.441	0.371	0.475	0.52	0.768	0.687	0.82	0.524	0.737	0.636	0.721	0.741	0.87	0.817	0.901	0.857
NCI-H2085	0.974	0.954	0.992	0.937	0.963	0.832	0.642	0.788	0.628	0.555	0.601	0.553	0.525	0.758	0.865	0.773	0.781
NCI-H2023	0.231	0.246	0.273	0.205	0.187	0.44	0.338	0.427	0.271	0.267	0.227	0.248	0.233	0.534	0.493	0.495	0.394
